Experimental data reported in article PMC7865555, “Mechanistic Studies of the Antiallergic Activity of Phyllanthus amarus Schum. & Thonn. and Its Compounds” (Molecules, 2021).
“And” between values parts separate entries of the source, which are not always exact repeats. Identical values can stand only once. Counter-ions that a name gives are not always drawn.

How the values were obtained:
[1] = Cell viability (MTT) assay on RBL-2H3 cells; type: cell-based, rat; settings: rat, RBL-2H3 cells; for viability at 4 h, 2.5 µg/mL: RBL-2H3, 2.5 µg/mL; for viability at 4 h, 5 µg/mL: RBL-2H3, 5 µg/mL; for viability at 4 h, 10 µg/mL: RBL-2H3, 10 µg/mL; for viability at 4 h, 25 µg/mL: RBL-2H3, 25 µg/mL; for viability at 4 h, 50 µg/mL: RBL-2H3, 50 µg/mL; for viability at 4 h, 100 µg/mL: RBL-2H3, 100 µg/mL
Procedure: (§1) RBL-2H3 cells were obtained from the Japanese Collection of Research Bioresources (JCRB) cell bank with a cell number of JCRB0023. The cells were cultured in enriched media (MEM containing 10% FBS and 1% penicillin-streptomycin (10 000 U/mL)). Once the cells reaching passage 3 (P3) with 80% confluency and showing stable growth and morphology, the cells were used for the bioassays. Only cells from passage 3 (P3) to passage 5 (P5) were used for the bioassays’ studies.
(§2) The cell viability assay was conducted as reported by Shahari, et al.. RBL-2H3 cells were seeded in 96-well plates in 100 µL at the concentration of 5 × 10^5 /mL. […] The cells were incubated for 4 h. 10 µL of MTT (5 mg/mL in PBS buffer) was added to the mixture and was incubated for 4 h at 37 °C. Upon the appearance of purple formazan crystal, the media was removed and 100 µL of DMSO was added to the well plates to dissolve the crystal. After 10 min of shaking the well plates on a shaker, the absorbance was immediately measured using a microplate reader at 570 nm.

RBL-2H3 cell line = assay: Cell viability (MTT) assay on RBL-2H3 cells; type: cell-based, rat; settings: for Concentration safe on the cell: RBL-2H3, maintaining approximately 70% cell viability; for Toxicity towards the cell (in words): RBL-2H3, all concentrations tested
Procedure: as §1, §2

[2] = system: beta-hexosaminidase release from RBL-2H3; assay: Inhibitory effect on beta-hexosaminidase release from RBL-2H3 (IgE/DNP-BSA); type: cell-based, rat
Procedure: The bioassay was conducted as reported by Abd Rani, et al.. In the concentration of 2 × 10^5 cells in 400 µL per well, RBL-2H3 cells were seeded and incubated for 2 h. After 2 h, the cells were sensitized with anti-DNP IgE at a concentration of 0.45 µg/mL in 100 µL per well. The cells were incubated overnight until 80% confluent. The cells were washed with 500 µL Siraganian buffer (119 mM of sodium chloride (NaCl), 5 mM of potassium chloride (KCl), 5.6 mM of glucose, 0.4 mM of magnesium chloride (MgCl2), 1 mM of calcium chloride (CaCl2), 25 mM of piperazine-N,N′-bis(2-ethanesulfonic acid) (PIPES), 40 mM of sodium hydroxide (NaOH), 0.1% BSA; pH 7.2) twice before were added with 160 µL of Siraganian buffer and incubated for 10 min. The cells were then treated with different concentrations of test samples in 20 µL. After 10 min of incubation, allergen, DNP-BSA at a concentration of 10 mg/mL were added to the cells. The cells were incubated for another 30 min. The supernatant (50 µL) was transferred into 96-well plates and was added immediately with 50 µL of the substrate ([…] p-nitrophenyl-N-acetyl-β-D-glucosaminide in 0.1 M citrate buffer, pH 4.5). The cells were further incubated for 1 h and the reaction was stopped using a 200 µL stop solution (0.1 M Na2CO3/NaHCO3, pH 10.0). The absorbance was measured using the microplate reader at 405 nm. The percentage of inhibition was measured using Equation (1). Control cell was assumed to have 100% beta-hexosaminidase release with allergen added without any treatment while the normal cell was assumed to have 0% beta-hexosaminidase release with cell without any allergen and treatment added to the well. The blank well consisted of the test sample. Ketotifen fumarate was used as a positive control. (1) Percentage inhibition % = (1− OD test sample−OD blank−OD normal/OD control−OD normal) × 100

[3] = system: histamine release from RBL-2H3; assay: Inhibitory effect on histamine release from RBL-2H3 (ELISA); type: cell-based; settings: Rattus norvegicus, mean ± SEM, n = 3, read-out: Inhibitory activity towards histamine release
Procedure: The bioassay was conducted as reported by Shahari, et al. and Abd Rani, et al.. In 24-well plates, 2 × 10^5 of RBL-2H3 cells were seeded in 400 µL per well. The cells were sensitized with 0.45 µg/mL anti-DNP IgE in 100 µL after two hours of incubation. The cells were incubated overnight until reaching 80% confluency. The cells were washed twice with 500 µL of enriched media before being constituted with 320 µL enriched media. After 10 min of incubation, the cells were treated with 40 µL of different concentration of test compounds and was incubated for another 10 min. The cells were treated with 20 µL of allergen, DNP-BSA (10 mg/mL), and further being incubated for another 30 min. The supernatant obtained was transferred into a microcentrifuge tube, and centrifuged for 20 min at 1000× g at 8 °C. The supernatant was transferred to the Histamine ELISA kit and the histamine quantification was conducted based on the ELISA manufacturer protocol given. The percentage of inhibition was measured using Equation (2). The control cell was assumed to have 100% histamine release with allergen added without any treatment while blank well corresponded to 0% cytokine release. Ketotifen fumarate was used as a positive control. (2) Percentage inhibition % = (1− OD test sample−OD blank/OD control−OD blank) × 100

[4] = target: T1, Histamine H1 (human) membrane preparation, in CHO-K1 cells (Homo sapiens, UniProt P35367); assay: Radioligand competition binding assay (3H-mepyramine); settings: for Ki: read-out: Radioassay (Ki)
T1 construct: purchased Perkin Elmer (Waltham, MA, USA); host or cells: CHO-K1 cells (recombinant expression, membrane preparation)
Procedure: In determining the affinity of the ligands toward the receptor, competition radioligand binding was conducted. The assay was conducted by measuring the competition binding between a radioligand with a ligand. The concentration of the radioligand with the presence of the ligand and the receptor was determined by using a liquid scintillation counter. […] The Ki value which also known as the binding affinity of the ligand was determined using GraphPad Prism.
Pyrilamine (Mepyramine), [pyridinyl 5-3H], Membrane Target Systems: Histamine H1 (human) membrane preparation, in CHO-K1 cells, liquid scintillation cocktail (ULTIMA GOLD MV), pico pro vial, and glass fiber (GF) filter were obtained from Perkin Elmer (Waltham, MA, USA).
In preparation for bioassay analysis, 10 mg of test samples were dissolved in 1 mL of DMSO and were treated as the stock sample. […] The working test sample together with its stock sample were kept in 4 °C until further used.
The radioligand assay was conducted as reported by Strakhova and Esbenshade. […] The mixture was immediately added with 200 µL of histamine receptor membrane (5 µg protein/well). The mixture was incubated for an hour at room temperature while shaking on the shaker. After an hour incubation, the mixture was harvested on GF/B uni filter presoaked with 0.5% PEI for 3 min. The GF/B uni filter was rinsed a few times with a wash buffer before being dried for one and a half hours. Once the uni filter was dry, the punched filter was transferred to 4 mL pico pro vial and was soaked with 2 mL of liquid scintillation cocktail. The solution was vortexed for a few seconds before being quantified using the liquid scintillator. Ki value (nmol/L) was obtained by using Equation (3).

[5] = Rattus norvegicus, mean ± SEM, n = 3, read-out: Inhibitory activity towards beta-hexosaminidase release
[6] = pH 7.4, 1 h incubation, 3H-mepyramine

T1 sequence (P35367 whole entry): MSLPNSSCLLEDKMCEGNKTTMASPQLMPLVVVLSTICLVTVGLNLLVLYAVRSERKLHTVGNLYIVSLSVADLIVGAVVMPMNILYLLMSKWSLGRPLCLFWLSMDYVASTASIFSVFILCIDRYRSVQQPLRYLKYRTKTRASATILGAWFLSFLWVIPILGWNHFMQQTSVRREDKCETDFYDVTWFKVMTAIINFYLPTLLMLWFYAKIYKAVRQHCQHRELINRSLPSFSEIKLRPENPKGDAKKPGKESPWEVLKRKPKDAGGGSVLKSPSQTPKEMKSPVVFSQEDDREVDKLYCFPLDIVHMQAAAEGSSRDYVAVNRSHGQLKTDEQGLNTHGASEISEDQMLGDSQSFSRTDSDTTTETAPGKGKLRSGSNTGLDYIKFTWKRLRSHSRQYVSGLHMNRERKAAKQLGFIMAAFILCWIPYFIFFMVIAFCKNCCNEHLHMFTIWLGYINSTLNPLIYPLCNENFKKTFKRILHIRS

| Structure (SMILES) | viability at 4 h, 2.5 µg/mL [1] [%] | viability at 4 h, 5 µg/mL [1] [%] | viability at 4 h, 10 µg/mL [1] [%] | viability at 4 h, 25 µg/mL [1] [%] | viability at 4 h, 50 µg/mL [1] [%] | viability at 4 h, 100 µg/mL [1] [%] | Concentration safe on the cell (RBL-2H3 cell line) | Inhibition of beta-hexosaminidase release (in words) [2] | inhibition at 2.5 µg/mL [2, 5] [%] | inhibition at 5 µg/mL [2, 5] [%] | inhibition at 10 µg/mL [2, 5] [%] | inhibition at 2.5 µg/mL [3] [%] | inhibition at 5 µg/mL [3] [%] | inhibition at 10 µg/mL [3] [%] | Ki [4, 6] | inhibition at 25 µg/mL [2, 5] [%] | inhibition at 25 µg/mL [3] [%] | Toxicity towards the cell (in words) (RBL-2H3 cell line) | inhibition at 50 µg/mL [2, 5] [%] | further results |
| --- | --- | --- | --- | --- | --- | --- | --- | --- | --- | --- | --- | --- | --- | --- | --- | --- | --- | --- | --- | --- |
| COC[C@@H](Cc1ccc(OC)c(OC)c1)[C@@H](COC)Cc1ccc(OC)c(OC)c1 [Phyllanthin (1), phyllanthin] | 92 ± 1.13 | 76.6 ± 3.77 | 84.3 ± 6.83 | 82.1 ± 4.03 | 74.2 ± 7.99 | 53.5 ± 0.65 | below 50 µg/mL | inhibited the release of beta-hexosaminidase | 26.4 ± 3.18 | 37.9 ± 6.51 | 38.4 ± 8.72 | -3.05 ± 7.93 | 55.8 ± 19.3 | -11.6 ± 70.8 | – | – | – | – | – | – |
| COC[C@@H]1Cc2cc(OC)c3c(c2[C@H](c2ccc(OC)c(OC)c2)[C@H]1COC)OCO3 [Hypophyllanthin (2), hypophyllanthin] | 93 ± 9.69 | 91 ± 10.4 | 114 ± 8.89 | 62.46 ± 0.56 | 40.6 ± 4.17 | 28.1 ± 4.13 | below 25 µg/mL | inhibited the release of beta-hexosaminidase | 32.3 ± 4.99 | 32.3 ± 4.51 | – | 11.9 ± 64.3 | 71.2 ± 34.7 | – | 0.04 nM | – | – | – | – | inhibition at 1.25 µg/mL ([2]; Rattus norvegicus, 1.25 µg/mL, mean ± SEM, n = 3, read-out: Inhibitory activity towards beta-hexosaminidase release): 23.9 ± 3.31%; inhibition at 1.25 µg/mL ([3]; 1.25 µg/mL): 16.4 ± 46.6% |
| CN1CCC(=C2c3ccccc3CC(=O)c3sccc32)CC1 [Ketotifen fumarate, reference compound] | 91.9 ± 6.16 | 90.1 ± 3.89 | 86.8 ± 6.47 | 87.4 ± 1.17 | 83.8 ± 4.1 | 28.9 ± 4.87 | below 50 µg/mL | – | – | 17.7 ± 1.05 | 22.2 ± 0.75 | – | 3.9 ± 6.8 | 44.7 ± 23 | – | 27.4 ± 0.58 | 58.7 ± 23.2 | – | – | – |
| O=C(O[C@@H]1O[C@@H]2COC(=O)c3cc(O)c(O)c(O)c3-c3c(cc(O)c(O)c3O)C(=O)O[C@H]([C@H]1O)[C@@H]2O)c1cc(O)c(O)c(O)c1 [Corilagin (4), corilagin] | 87.1 ± 4.31 | 81.1 ± 14.8 | 93.7 ± 15.4 | 103 ± 12.1 | 104 ± 7.35 | 101 ± 7.2 | – | – | – | – | 2.43 ± 3.26 | – | – | – | – | 5.12 ± 2.09 | – | not toxic towards the cell | 6.68 ± 1.71 | Affinity towards the H1 receptor (in words) ([4]; competition radioligand assay): did not show any affinity towards the receptor; Radioassay (Ki) [4, 6]: Not converged |
| COC[C@H](Cc1ccc(OC)c(OC)c1)[C@H](COC)Cc1cc(OC)c2c(c1)OCO2 [Niranthin (3), niranthin] | 104 ± 5.79 | 79.4 ± 8.96 | 96.5 ± 7.33 | 85.4 ± 11.6 | 96.63 ± 0.63 | 86.3 ± 12.4 | – | inhibited the release of beta-hexosaminidase | – | – | 29.3 ± 5.81 | – | 34.7 ± 12.2 | 59 ± 22.2 | 0.44 nM and 0.444 nM | 31.3 ± 7.43 | 41.2 ± 31.2 | not toxic towards the cell | 32.1 ± 7.27 | – |
